# Results from ChEMBL document CHEMBL1287765, “Discovery of novel quinolinone adenosine A2B antagonists” (Bioorg Med Chem Lett, 2010).
# Experiment: Aqueous solubility of compound
# Assay type: physicochemical
# Details: buffer
row,solubility,Structure (SMILES)
1,Insoluble,COc1ccc2[nH]c(=O)c(S(C)(=O)=O)c(CCc3ccccc3)c2c1
2,Insoluble,CS(=O)(=O)c1c(CCc2ccccc2)c2cc(OCC(=O)Nc3ccccc3)ccc2[nH]c1=O
3,Insoluble,CS(=O)(=O)c1c(CCc2ccccc2)c2cc(OCC(=O)NCC3CC3)ccc2[nH]c1=O
4,Insoluble,CN(Cc1ccc(Cl)c(Cl)c1)C(=O)COc1ccc2[nH]c(=O)c(S(C)(=O)=O)c(CCc3ccccc3)c2c1
5,Insoluble,CS(=O)(=O)c1c(CCc2ccccc2)c2cc(OCC(=O)NCc3ccc(Cl)c(Cl)c3)ccc2[nH]c1=O
6,Insoluble,Cn1c(=O)c(S(C)(=O)=O)c(CCc2ccccc2)c2cc(OCC(=O)NCc3ccc(Cl)c(Cl)c3)ccc21
7,Insoluble,COCCCNC(=O)COc1ccc2[nH]c(=O)c(S(C)(=O)=O)c(CCc3ccccc3)c2c1
8,Insoluble,CS(=O)(=O)c1c(CCc2ccccc2)c2cc(OCC(=O)NCc3ccccc3)ccc2[nH]c1=O
